{"source": "patent US7109193B2", "about": "“Tricyclic diazepines tocolytic oxytocin receptor antagonists” (Wyeth, priority 2001, dated 2006)", "data": [{"target": "T1, human vasopressin V1a receptor subtype (Homo sapiens, UniProt P37288)", "T1 construct": "host or cells: CHO cells (pZeoSV vector for the Thibonnier line)", "T1 sequence (P37288 whole entry)": "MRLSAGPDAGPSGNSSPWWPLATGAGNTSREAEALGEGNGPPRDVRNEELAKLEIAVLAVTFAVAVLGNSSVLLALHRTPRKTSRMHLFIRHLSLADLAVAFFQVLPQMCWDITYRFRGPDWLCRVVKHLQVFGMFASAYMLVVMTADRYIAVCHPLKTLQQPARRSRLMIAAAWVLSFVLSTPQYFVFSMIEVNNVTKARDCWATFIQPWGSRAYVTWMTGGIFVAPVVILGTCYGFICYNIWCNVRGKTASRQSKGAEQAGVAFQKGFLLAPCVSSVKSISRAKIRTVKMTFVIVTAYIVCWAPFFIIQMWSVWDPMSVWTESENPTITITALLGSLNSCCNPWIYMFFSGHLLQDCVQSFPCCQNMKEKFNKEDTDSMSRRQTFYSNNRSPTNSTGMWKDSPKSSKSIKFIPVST", "test": "Vasopressin binding in Chinese Hamster Ovary cell membranes expressing human vasopressin V1a subtype receptors", "conditions": "100 nM, CHO cell membranes, [3H]Manning ligand, values without parentheses", "in_short": "(§1)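 Membranes from CHO cells expressing human V1a receptor were incubated with [3H]Manning ligand (added as 20 μL of 8 nM) in pH 7.4 Tris buffer with MgCl2, BSA and protease inhibitors, 60 min at room temperature. Bound radioactivity was counted after filtration; values are percent inhibition at a stated concentration or IC50.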", "units": {"inhibition at 0.1 µM": "%"}, "values": [{"compound": "COc1cc(C(=O)N2Cc3ccc(C(=O)N4CCCN(C)CC4)n3Cc3ccccc32)ccc1-c1cccc2ccccc12", "note": "[Example 68, {10-[3-Methoxy-4-(1-naphthyl)benzoyl]-10,11-dihydro-5H-pyrrolo[2,1-c][1,4]benzodiazepin-3-yl}(4-methyl-1,4-diazepan-1-yl)methanone]", "inhibition at 0.1 µM": 9}, {"compound": "COc1ccccc1-c1ccc(C(=O)N2Cc3ccc(C(=O)N4CCCN(C)CC4)n3Cc3ccccc32)cc1OC", "note": "[Example 69, {10-[(2,2′-Dimethoxy[1,1′-biphenyl]-4-yl)carbonyl]-10,11-dihydro-5H-pyrrolo[2,1-c][1,4]benzodiazepin-3-yl}(4-methyl-1,4-diazepan-1-yl)methanone]", "inhibition at 0.1 µM": 8}, {"compound": "COc1cccc(-c2ccc(C(=O)N3Cc4ccc(C(=O)N5CCCN(C)CC5)n4Cc4ccccc43)cc2OC)c1", "note": "[Example 70, {10-[(2,3′-Dimethoxy[1,1′-biphenyl]-4-yl)carbonyl]-10,11-dihydro-5H-pyrrolo[2,1-c][1,4]benzodiazepin-3-yl}(4-methyl-1,4-diazepan-1-yl)methanone]", "inhibition at 0.1 µM": 19}, {"compound": "CN1CCCN(C(=O)c2ccc3n2Cc2ccccc2N(C(=O)c2ccc(-c4cccc5ccccc45)cc2Cl)C3)CC1", "note": "[Example 71, {10-[2-Chloro-4-(1-naphthyl)benzoyl]-10,11-dihydro-5H-pyrrolo[2,1-c][1,4]benzodiazepin-3-yl}(4-methyl-1,4-diazepan-1-yl)methanone]", "inhibition at 0.1 µM": 4}, {"compound": "COc1ccccc1-c1ccc(C(=O)N2Cc3ccc(C(=O)NCCCN(C)C)n3Cc3ccccc32)cc1C", "note": "[Example 72, N-[3-(Dimethylamino)propyl]-10-[(2′-methoxy-2-methyl[1,1′-biphenyl]-4-yl)carbonyl]-10,11-dihydro-5H-pyrrolo[2,1-c][1,4]benzodiazepine-3-carboxamide]", "inhibition at 0.1 µM": 8}, {"compound": "Cc1ccccc1-c1ccc(C(=O)N2Cc3ccc(C(=O)NCCCN(C)C)n3Cc3ccccc32)cc1C", "note": "[Example 73, N-[3-(Dimethylamino)propyl]-10-[(2,2′-dimethyl[1,1′-biphenyl]-4-yl)carbonyl]-10,11-dihydro-5H-pyrrolo[2,1-c][1,4]benzodiazepine-3-carboxamide]", "inhibition at 0.1 µM": 46}, {"compound": "COc1cccc(-c2ccc(C(=O)N3Cc4ccc(C(=O)NCCCN(C)C)n4Cc4ccccc43)cc2C)c1", "note": "[Example 74, N-[3-(Dimethylamino)propyl]-10-[(3′-methoxy-2-methyl[1,1′-biphenyl]-4-yl)carbonyl]-10,11-dihydro-5H-pyrrolo[2,1-c][1,4]benzodiazepine-3-carboxamide]", "inhibition at 0.1 µM": 12}, {"compound": "COc1ccccc1-c1ccc(C(=O)N2Cc3ccc(C(=O)NCCCN(C)C)n3Cc3ccccc32)cc1", "note": "[Example 75, N-[3-(Dimethylamino)propyl]-10-[(2′-methoxy[1,1′-biphenyl]-4-yl)carbonyl]-10,11-dihydro-5H-pyrrolo[2,1-c][1,4]benzodiazepine-3-carboxamide]", "inhibition at 0.1 µM": 27}, {"compound": "Cc1ccccc1-c1ccc(C(=O)N2Cc3ccc(C(=O)NCCCN(C)C)n3Cc3ccccc32)cc1", "note": "[Example 76, N-[3-(Dimethylamino)propyl]-10-[(2′-methyl[1,1′-biphenyl]-4-yl)carbonyl]-10,11-dihydro-5H-pyrrolo[2,1-c][1,4]benzodiazepine-3-carboxamide]", "inhibition at 0.1 µM": 58}, {"compound": "COc1cc(C(=O)N2Cc3ccc(C(=O)NCCCN(C)C)n3Cc3ccccc32)ccc1-c1ccccc1C", "note": "[Example 77, N-[3-(Dimethylamino)propyl]-10-[(2-methoxy-2′-methyl[1,1′-biphenyl]-4-yl)carbonyl]-10,11-dihydro-5H-pyrrolo[2,1-c][1,4]benzodiazepine-3-carboxamide]", "inhibition at 0.1 µM": 44}, {"compound": "COc1cc(-c2ccccc2C)c(Cl)cc1C(=O)N1Cc2ccc(C(=O)NCCCN(C)C)n2Cc2ccccc21", "note": "[Example 78, 10-[(6-Chloro-3-methoxy-2′-methyl[1,1′-biphenyl]-4-yl)carbonyl]-N-[3-(dimethylamino)propyl]-10,11-dihydro-5H-pyrrolo[2,1-c][1,4]benzodiazepine-3-carboxamide]", "inhibition at 0.1 µM": -3}, {"compound": "CC(C)N1CCN(C(=O)c2ccc3n2Cc2ccccc2N(C(=O)c2ccc(-c4cccc5ccccc45)cc2Cl)C3)CC1", "note": "[Example 243, {10-[2-Chloro-4-(1-naphthyl)benzoyl]-10,11-dihydro-5H-pyrrolo[2,1-c][1,4]benzodiazepin-3-yl}(4-isopropyl-1-piperazinyl)methanone]", "inhibition at 0.1 µM": 5}, {"compound": "Cc1ccccc1-c1ccc(C(=O)N2Cc3ccc(C(=O)N4CCN(CCCN(C)C)CC4)n3Cc3ccccc32)cc1C", "note": "[Example 247, {4-[3-(Dimethylamino)propyl]-1-piperazinyl}{10-[(2,2′-dimethyl[1,1′-biphenyl]-4-yl)carbonyl]-10,11-dihydro-5H-pyrrolo[2,1-c][1,4]benzodiazepin-3-yl}methanone]", "inhibition at 0.1 µM": 62}, {"compound": "COc1cccc(-c2ccc(C(=O)N3Cc4ccc(C(=O)N5CCN(CCCN(C)C)CC5)n4Cc4ccccc43)cc2C)c1", "note": "[Example 248, {4-[3-(Dimethylamino)propyl]-1-piperazinyl}{10-[(3′-methoxy-2-methyl[1,1′-biphenyl]-4-yl)carbonyl]-10,11-dihydro-5H-pyrrolo[2,1-c][1,4]benzodiazepin-3-yl}methanone]", "inhibition at 0.1 µM": 17}, {"compound": "Cc1ccccc1-c1ccc(C(=O)N2Cc3ccc(C(=O)N4CCN(CCCN(C)C)CC4)n3Cc3ccccc32)cc1", "note": "[Example 249, {4-[3-(Dimethylamino)propyl]-1-piperazinyl}{10-[(2′-methyl[1,1′-biphenyl]-4-yl)carbonyl]-10,11-dihydro-5H-pyrrolo[2,1-c][1,4]benzodiazepin-3-yl}methanone]", "inhibition at 0.1 µM": 12}, {"compound": "COc1cc(C(=O)N2Cc3ccc(C(=O)N4CCN(CCCN(C)C)CC4)n3Cc3ccccc32)ccc1-c1ccccc1C", "note": "[Example 250, {4-[3-(Dimethylamino)propyl]-1-piperazinyl}{10-[(2-methoxy-2′-methyl[1,1′-biphenyl]-4-yl)carbonyl]-10,11-dihydro-5H-pyrrolo[2,1-c][1,4]benzodiazepin-3-yl}methanone]", "inhibition at 0.1 µM": 53}, {"compound": "COc1cc(-c2ccccc2C)c(Cl)cc1C(=O)N1Cc2ccc(C(=O)N3CCN(CCCN(C)C)CC3)n2Cc2ccccc21", "note": "[Example 251, {10-[(6-Chloro-3-methoxy-2′-methyl[1,1′-biphenyl]-4-yl)carbonyl]-10,11-dihydro-5H-pyrrolo[2,1-c][1,4]benzodiazepin-3-yl}{4-[3-(dimethylamino)propyl]-1-piperazinyl}methanone]", "inhibition at 0.1 µM": 6}, {"compound": "COc1cccc(-c2cc(OC)c(C(=O)N3Cc4ccc(C(=O)N5CCN(CCCN(C)C)CC5)n4Cc4ccccc43)cc2Cl)c1", "note": "[Example 252, {10-[(6-Chloro-3,3′-dimethoxy[1,1′-biphenyl]-4-yl)carbonyl]-10,11-dihydro-5H-pyrrolo[2,1-c][1,4]benzodiazepin-3-yl}{4-[3-(dimethylamino)propyl]-1-piperazinyl}methanone]", "inhibition at 0.1 µM": 8}, {"compound": "COc1cc(C(=O)N2Cc3ccc(C(=O)N4CCN(CCCN(C)C)CC4)n3Cc3ccccc32)ccc1-c1cccc2ccccc12", "note": "[Example 253, {4-[3-(Dimethylamino)propyl]-1-piperazinyl}{10-[3-methoxy-4-(1-naphthyl)benzoyl]-10,11-dihydro-5H-pyrrolo[2,1-c][1,4]benzodiazepin-3-yl}methanone]", "inhibition at 0.1 µM": 16}, {"compound": "COc1ccccc1-c1ccc(C(=O)N2Cc3ccc(C(=O)N4CCN(CCCN(C)C)CC4)n3Cc3ccccc32)cc1OC", "note": "[Example 254, {10-[(2,2′-Dimethoxy[1,1′-biphenyl]-4-yl)carbonyl]-10,11-dihydro-5H-pyrrolo[2,1-c][1,4]benzodiazepin-3-yl}{4-[3-(dimethylamino)propyl]-1-piperazinyl}methanone]", "inhibition at 0.1 µM": 7}, {"compound": "COc1cccc(-c2ccc(C(=O)N3Cc4ccc(C(=O)N5CCN(CCCN(C)C)CC5)n4Cc4ccccc43)cc2OC)c1", "note": "[Example 255, {10-[(2,3′-Dimethoxy[1,1′-biphenyl]-4-yl)carbonyl]-10,11-dihydro-5H-pyrrolo[2,1-c][1,4]benzodiazepin-3-yl}{4-[3-(dimethylamino)propyl]-1-piperazinyl}methanone]", "inhibition at 0.1 µM": 53}, {"compound": "CN(C)CCCN1CCN(C(=O)c2ccc3n2Cc2ccccc2N(C(=O)c2ccc(-c4cccc5ccccc45)cc2Cl)C3)CC1", "note": "[Example 256, {10-[2-Chloro-4-(1-naphthyl)benzoyl]-10,11-dihydro-5H-pyrrolo[2,1-c][1,4]benzodiazepin-3-yl}{4-[3-(dimethylamino)propyl]-1-piperazinyl}methanone]", "inhibition at 0.1 µM": 7}, {"compound": "Cc1cc(C(=O)N2Cc3ccc(C(=O)N[C@@H](Cc4c[nH]cn4)C(N)=O)n3Cc3ccccc32)ccc1-c1ccccc1C(F)(F)F", "note": "[Example 284, N-[(1S)-2-Amino-1-(1H-imidazol-4-ylmethyl)-2-oxoethyl]-10-{[2-methyl-2′-(trifluoromethyl)[1,1′-biphenyl]-4-yl]carbonyl}-10,11-dihydro-5H-pyrrolo[2,1-c][1,4]benzodiazepine-3-carboxamide]", "inhibition at 0.1 µM": 0}, {"compound": "COc1ccccc1-c1ccc(C(=O)N2Cc3ccc(C(=O)N[C@@H](Cc4c[nH]cn4)C(N)=O)n3Cc3ccccc32)cc1", "note": "[Example 285, N-[(1S)-2-Amino-1-(1H-imidazol-4-ylmethyl)-2-oxoethyl]-10-[(2′-methoxy[1,1′-biphenyl]-4-yl)carbonyl]-10,11-dihydro-5H-pyrrolo[2,1-c][1,4]benzodiazepine-3-carboxamide]", "inhibition at 0.1 µM": 38}]}, {"target": "T1, human vasopressin V1a receptor subtype", "test": "Vasopressin binding in Chinese Hamster Ovary cell membranes expressing human vasopressin V1a subtype receptors", "conditions": "100 nM, CHO cell membranes, [3H]Manning ligand, values without parentheses, 0.1 µM", "in_short": "as §1", "units": {"V1a % inhibition @ 100 nM": "%"}, "values": [{"compound": "Cc1cc(C(=O)N2Cc3ccc(C(=O)N4CCN(CCCN(C)C)CC4)n3Cc3ccccc32)ccc1-c1ccccc1C(F)(F)F", "note": "[Example 257, {10-[(2-Methyl-2′-trifluoromethyl-[1,1′-biphenyl]-4-yl)carbonyl]-10,11-dihydro-5H-pyrrolo[2,1-c][1,4]benzodiazepin-3-yl}{4-[3-(dimethylamino)propyl]-1-piperazinyl}-methanone]", "V1a % inhibition @ 100 nM": 10}]}]}
